Entries after “also recorded” stand apart in the source; their conditions may differ.
Test system: primary human neutrophils
Type: cell-based
Protocol: (§1) Each channel was used of one of four different conditions under investigation: 1) Media control, 2) uniform chemo-attractant, 3) chemo-attractant gradient and 4) chemo-attractant gradient with inhibitor. For conditions 1 and 3 each channel network was wick-filled with EGM2MV cell culture media via the source input port. For condition 2 the channel network was wick-filled with EGM2MV cell culture media containing 10 nM formyl-Met-Leu-Phe (fMLP, Sigma-Aldrich). For condition 4 the channel network was wick-filled with EGM2MV cell culture media containing 5 μM Latrunculin B (Sigma-Aldrich). Next, for conditions 3 and 4, a 1.2 μL drop of 1 μM fMLP was added to the source input using a handheld pipette. For condition 4 the fMLP solution also contained Latrunculin B at the same concentration as the media to ensure a uniform concentration of the inhibitor during the study. This volume flowed into the source volume via passive pumping. Lastly, for all four conditions, a 1.5 μL drop of freshly isolated primary neutrophils at roughly at a concentration of roughly 5,000 cells/μL were added to the cell addition port.
as §1, with “Human neutrophil cell culture media and chemo-attractant solution were prepared using conventional protocols. (See, Nuzzi P A at al., Analysis of neutrophil chemotaxis, Methods in Molecular Biology 370:23-26, 2007). Primary human neutrophils were acquired from donors under approved protocol. (See University of Wisconsin Institutional Review Board and National Institutes of Health Protection concerning protection of human subjects regulations). Four channel networks in a polystyrene device were prepared. Each” for “Each”, “used to test” for “used of”, “different conditions:” for “different conditions under investigation:”

Compound | direction of displacement vectors of cells (preference for migrating up the fMLP gradient) (fMLP gradient with uniform 5 μM Latrunculin B, 52 minutes) | mean total displacement of cells (migration up an fMLP gradient) (fMLP gradient with uniform 5 μM Latrunculin B, cells tracked over 52 minutes) | direction of displacement vectors of cells | mean total displacement of cells
C/C1=C/C(=O)O[C@@H]2C[C@@H](CC[C@H](C)/C=C\CC1)O[C@@](O)([C@@H]1CSC(=O)N1)C2 [Latrunculin B] | abolished | strongly inhibited |  | 
formyl-Met-Leu-Phe [fMLP] |  |  | slight preference for migrating up the channel; also recorded: strong preference for migrating in the direction of increasing concentration of the gradient | migrate further; also recorded: migrated further still

Reference: patent US8377685B2, “Microfluidic device having stable static gradient for analyzing chemotaxis” (priority 2007, dated 2013)
